Where “and” joins values, the source holds several entries; their conditions need not be identical. Equal entries are not always repeated. Toxic doses and inconclusive results are not listed. The calls were made as follows: active = survival T/C of 150% or more; inactive = T/C below 125% in these data.
Test system: CD2F1 mice, L1210 leukemia ip, survival T/C
Experiment: NCI In Vivo Anticancer Drug Screen. Data for tumor model L1210 Leukemia (intraperitoneal) in CD2F1 (CDF1) mice
Settings: higher = longer survival
How it was run: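 Read-out first: treated-group measurement over vehicle-control measurement, expressed as a ratio. Animals bore a transplanted tumor line and were dosed with compound or vehicle.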

[1] = endpoint: mean survival time, dose: 50.0 mg/kg/injection, schedule: Q01DX009 (ip), vehicle: saline with Tween-80
[2] = endpoint: mean survival time, dose: 100.0 mg/kg/injection, schedule: Q01DX009 (ip), vehicle: saline with Tween-80
[3] = endpoint: mean survival time, dose: 100.0 mg/kg/injection, schedule: Q04DX003 (ip), vehicle: saline with Tween-80
[4] = endpoint: mean survival time, dose: 200.0 mg/kg/injection, schedule: Q01DX009 (ip), vehicle: saline with Tween-80
[5] = endpoint: mean survival time, dose: 200.0 mg/kg/injection, schedule: Q04DX003 (ip), vehicle: saline with Tween-80
[6] = endpoint: mean survival time, dose: 400.0 mg/kg/injection, schedule: Q01DX009 (ip), vehicle: saline with Tween-80
[7] = endpoint: mean survival time, dose: 400.0 mg/kg/injection, schedule: Q04DX003 (ip), vehicle: saline with Tween-80
[8] = endpoint: mean survival time, dose: 100.0 mg/kg/injection, schedule: Q01DX009 (ip), vehicle: saline sonified
[9] = endpoint: mean survival time, dose: 100.0 mg/kg/injection, schedule: Q01DX001 (ip), vehicle: saline with Tween-80
[10] = endpoint: mean survival time, dose: 200.0 mg/kg/injection, schedule: Q01DX001 (ip), vehicle: saline with Tween-80
[11] = endpoint: mean survival time, dose: 400.0 mg/kg/injection, schedule: Q01DX001 (ip), vehicle: saline with Tween-80
[12] = endpoint: mean survival time, dose: 100.0 mg/kg/injection, schedule: Q04DX002 (ip), vehicle: saline with Tween-80
[13] = endpoint: mean survival time, dose: 200.0 mg/kg/injection, schedule: Q04DX002 (ip), vehicle: saline with Tween-80
[14] = endpoint: mean survival time, dose: 400.0 mg/kg/injection, schedule: Q04DX002 (ip), vehicle: saline with Tween-80

Measured: T/C

C(C#CCN1CCOCC1)#CCN1CCOCC1
inactive: endpoint: mean survival time, dose: 6.25 mg/kg/injection, schedule: Q01DX009 (ip), vehicle: Klucel (hydroxypropylcellulose) (HPC) 96 % of control | endpoint: mean survival time, dose: 12.5 mg/kg/injection, schedule: Q01DX009 (ip), vehicle: Klucel (hydroxypropylcellulose) (HPC) 91 % of control | endpoint: mean survival time, dose: 12.5 mg/kg/injection, schedule: Q01DX009 (ip), vehicle: saline with Tween-80 95 % of control and 101 % of control | endpoint: mean survival time, dose: 25.0 mg/kg/injection, schedule: Q01DX009 (ip), vehicle: Klucel (hydroxypropylcellulose) (HPC) 100 % of control | endpoint: mean survival time, dose: 25.0 mg/kg/injection, schedule: Q01DX009 (ip), vehicle: saline with Tween-80 95 % of control and 98 % of control | endpoint: mean survival time, dose: 50.0 mg/kg/injection, schedule: Q01DX009 (ip), vehicle: Klucel (hydroxypropylcellulose) (HPC) 105 % of control | [1] 93 % of control and 95 % of control | endpoint: mean survival time, dose: 100.0 mg/kg/injection, schedule: Q01DX009 (ip), vehicle: Klucel (hydroxypropylcellulose) (HPC) 100 % of control | [2] 88 % of control and 90 % of control and 96 % of control | [3] 102 % of control | endpoint: mean survival time, dose: 200.0 mg/kg/injection, schedule: Q01DX009 (ip), vehicle: Klucel (hydroxypropylcellulose) (HPC) 91 % of control | [4] 95 % of control (2×) and 96 % of control | [5] 96 % of control | endpoint: mean survival time, dose: 400.0 mg/kg/injection, schedule: Q01DX009 (ip), vehicle: Klucel (hydroxypropylcellulose) (HPC) 97 % of control | [6] 95 % of control and 100 % of control and 101 % of control | [7] 102 % of control

N#CNC(N)=O
inactive: [8] 102 % of control | endpoint: mean survival time, dose: 200.0 mg/kg/injection, schedule: Q01DX009 (ip), vehicle: saline sonified 96 % of control | endpoint: mean survival time, dose: 400.0 mg/kg/injection, schedule: Q01DX009 (ip), vehicle: saline sonified 100 % of control

CC(C)(C)c1ccc(O)cc1
inactive: [3] 94 % of control | [5] 95 % of control | [7] 88 % of control

[Cl][Pt][Cl].[NH-]C(CO)C(=O)O (centres undefined)
inactive: endpoint: mean survival time, dose: 3.13 mg/kg/injection, schedule: Q04DX003 (ip), vehicle: water 106 % of control | endpoint: mean survival time, dose: 6.25 mg/kg/injection, schedule: Q04DX003 (ip), vehicle: water 113 % of control | endpoint: mean survival time, dose: 12.5 mg/kg/injection, schedule: Q04DX003 (ip), vehicle: water 113 % of control | endpoint: mean survival time, dose: 25.0 mg/kg/injection, schedule: Q04DX003 (ip), vehicle: water 118 % of control | endpoint: mean survival time, dose: 50.0 mg/kg/injection, schedule: Q04DX003 (ip), vehicle: water 119 % of control | endpoint: mean survival time, dose: 100.0 mg/kg/injection, schedule: Q04DX003 (ip), vehicle: water 95 % of control | endpoint: median survival time, dose: 6.25 mg/kg/injection, schedule: Q01DX009 (ip), vehicle: water 117 % of control | endpoint: median survival time, dose: 12.5 mg/kg/injection, schedule: Q01DX009 (ip), vehicle: water 117 % of control | endpoint: median survival time, dose: 25.0 mg/kg/injection, schedule: Q01DX009 (ip), vehicle: water 124 % of control

O=c1[nH]c(=O)n(C2CC(O)C(CO)O2)cc1/C=C/c1ccccc1 (centres undefined)
inactive: endpoint: mean survival time, dose: 6.25 mg/kg/injection, schedule: Q01DX005 (ip), vehicle: distilled water + Tween-80 97 % of control | endpoint: mean survival time, dose: 12.5 mg/kg/injection, schedule: Q01DX005 (ip), vehicle: distilled water + Tween-80 103 % of control | endpoint: mean survival time, dose: 25.0 mg/kg/injection, schedule: Q01DX005 (ip), vehicle: distilled water + Tween-80 95 % of control | endpoint: mean survival time, dose: 50.0 mg/kg/injection, schedule: Q01DX005 (ip), vehicle: distilled water + Tween-80 95 % of control | endpoint: mean survival time, dose: 100.0 mg/kg/injection, schedule: Q01DX005 (ip), vehicle: distilled water + Tween-80 96 % of control

N#CC(/C=C/c1ccccc1)NCC(O)c1ccccc1 (centres undefined)
inactive: [9] 97 % of control | [10] 101 % of control | [11] 93 % of control

CC1(C)C(=O)C(C)(C)C1=NNc1ccc([N+](=O)[O-])cc1[N+](=O)[O-]
inactive: endpoint: median survival time, dose: 50.0 mg/kg/injection, schedule: Q04DX002 (ip), vehicle: saline with Tween-80 90 % of control | endpoint: median survival time, dose: 100.0 mg/kg/injection, schedule: Q04DX002 (ip), vehicle: saline with Tween-80 100 % of control | endpoint: median survival time, dose: 200.0 mg/kg/injection, schedule: Q04DX002 (ip), vehicle: saline with Tween-80 90 % of control | endpoint: median survival time, dose: 400.0 mg/kg/injection, schedule: Q04DX002 (ip), vehicle: saline with Tween-80 100 % of control

O=C(CCBr)c1ccc(Cl)cc1
inactive: [8] 97 % of control

CC(=O)OCC1OC(OC(C)=O)C(OC(C)=O)C(OC(C)=O)C1OC(C)=O (centres undefined)
inactive: endpoint: mean survival time, dose: 100.0 mg/kg/injection, schedule: Q04DX003 (ip), vehicle: saline 95 % of control | endpoint: mean survival time, dose: 200.0 mg/kg/injection, schedule: Q04DX003 (ip), vehicle: saline 98 % of control | endpoint: mean survival time, dose: 400.0 mg/kg/injection, schedule: Q04DX003 (ip), vehicle: saline 97 % of control

CSC(=O)NC(=O)c1ccccc1
inactive: [3] 100 % of control | [5] 103 % of control | [7] 105 % of control

CCCOc1ccc(/C=N\N=C\c2ccc(OCCC)cc2)cc1
inactive: [3] 89 % of control | [5] 89 % of control | [7] 91 % of control

NN=C(c1ccccc1)c1ccccc1
inactive: endpoint: mean survival time, dose: 150.0 mg/kg/injection, schedule: Q04DX003 (ip), vehicle: Klucel (hydroxypropylcellulose) (HPC) 93 % of control | endpoint: mean survival time, dose: 225.0 mg/kg/injection, schedule: Q04DX003 (ip), vehicle: Klucel (hydroxypropylcellulose) (HPC) 95 % of control | endpoint: mean survival time, dose: 335.0 mg/kg/injection, schedule: Q04DX003 (ip), vehicle: Klucel (hydroxypropylcellulose) (HPC) 98 % of control

O=P1(CCBr)NCCCO1 (centres undefined)
inactive: endpoint: mean survival time, dose: 62.5 mg/kg/injection, schedule: Q01DX001 (ip), vehicle: water 100 % of control | endpoint: mean survival time, dose: 125.0 mg/kg/injection, schedule: Q01DX001 (ip), vehicle: water 97 % of control | endpoint: mean survival time, dose: 250.0 mg/kg/injection, schedule: Q01DX001 (ip), vehicle: water 94 % of control | endpoint: mean survival time, dose: 500.0 mg/kg/injection, schedule: Q01DX001 (ip), vehicle: water 97 % of control | endpoint: mean survival time, dose: 750.0 mg/kg/injection, schedule: Q01DX001 (ip), vehicle: water 102 % of control

COc1cc2c(cc1OC)C1c3cc(OC)c(OC)cc3CCN1CC2
inactive: endpoint: mean survival time, dose: 12.5 mg/kg/injection, schedule: Q01DX009 (ip), vehicle: other 103 % of control | endpoint: mean survival time, dose: 25.0 mg/kg/injection, schedule: Q01DX009 (ip), vehicle: other 94 % of control

COc1ccc(-n2cnc3c(=O)[nH]cnc32)cc1
inactive: [12] 86 % of control | [13] 90 % of control | [14] 86 % of control

O=c1cn[nH]c2c(Cl)cccc12
inactive: endpoint: mean survival time, dose: 100.0 mg/kg/injection, schedule: Q01DX001 (ip), vehicle: carboxymethylcellulose (CMC) 106 % of control | endpoint: mean survival time, dose: 200.0 mg/kg/injection, schedule: Q01DX001 (ip), vehicle: carboxymethylcellulose (CMC) 95 % of control

COB1OB(OC)OB(OC)O1
inactive: [1] 90 % of control | [2] 93 % of control | [4] 93 % of control | [6] 93 % of control

O=[N+]([O-])c1ccc2c(c1)CS(=O)(=O)C2
inactive: [2] 101 % of control | [3] 96 % of control | [4] 101 % of control | [5] 90 % of control | [6] 101 % of control | [7] 96 % of control

CN(C)CC(C)(C)C(=O)c1ccc(Cl)cc1
inactive: endpoint: mean survival time, dose: 100.0 mg/kg/injection, schedule: Q04DX002 (ip), vehicle: saline 93 % of control | endpoint: mean survival time, dose: 200.0 mg/kg/injection, schedule: Q04DX002 (ip), vehicle: saline 89 % of control

CC(C)(C)NC(=O)Nc1ccc(Cl)c(Cl)c1
inactive: [9] 93 % of control | [10] 88 % of control | [11] 93 % of control

Cc1cccc2cc3c(sc4ccccc43)c(C)c12
inactive: endpoint: mean survival time, dose: 7.9 mg/kg/injection, schedule: Q04DX003 (ip), vehicle: other 101 % of control | endpoint: mean survival time, dose: 15.7 mg/kg/injection, schedule: Q04DX003 (ip), vehicle: other 97 % of control | endpoint: mean survival time, dose: 31.3 mg/kg/injection, schedule: Q04DX003 (ip), vehicle: other 97 % of control | endpoint: mean survival time, dose: 62.5 mg/kg/injection, schedule: Q04DX003 (ip), vehicle: other 97 % of control | endpoint: mean survival time, dose: 125.0 mg/kg/injection, schedule: Q04DX003 (ip), vehicle: other 93 % of control

CC1CCC2(C(=O)O)CCC3(C)C(=CCC4C5(C)CCC(O)C(C)(C)C5CCC43C)C2C1C (centres undefined)
inactive: endpoint: mean survival time, dose: 100.0 mg/kg/injection, schedule: Q01DX001 (ip), vehicle: saline 98 % of control | endpoint: mean survival time, dose: 200.0 mg/kg/injection, schedule: Q01DX001 (ip), vehicle: saline 98 % of control | endpoint: mean survival time, dose: 400.0 mg/kg/injection, schedule: Q01DX001 (ip), vehicle: saline 96 % of control

CCC(=O)Nc1nn[nH]n1
inactive: [12] 105 % of control | [13] 102 % of control | [14] 94 % of control

— PubChem BioAssay AID256 (DTP/NCI, 2004)
